Laboratory results published in patent publication US8513437B2, “Pyrrolidino-1,4-naphthoquinone deriviatives and their use for treating malignancies and cardiovascular diseases” (Ben Gurion University of the Negev Research and Development …, priority 2004, dated 2013).
Entries after “also recorded” stand apart in the source; their conditions may differ. Where two headings read alike, the source gives them in different places.

Experiments:
cardiomyocytes = assay: Cardiomyocyte viability (XTT) following incubation with EH48; type: cell-based, rat; settings: cardiomyocytes starved 16-18 h, compound 24 h, XTT 4 h, FIG. 5
Method: (§1) The cell viability was examined using the XTT method following kit instructions (Biological Industry, Israel). The assay is based on the ability of metabolic active cells to reduce the tetrazolium salt XTT to orange colored compound of formazan. The dye formed is water soluble and the dye intensity can be read with spectrophotometer at 450-500 nm. The intensity of the dye is proportional to the number of metabolic active cells.
(§2) The viability of the cells was measured as described above. Briefly, cells were starved for 16-18 h followed by incubation with the compound of formula II (EH48) for 24 h and incubation with XTT for an other 4 h. The assay is based on the ability of metabolic active cells to reduce the tetrazolium salt XTT to orange colored compound of formazan. The intensity of the dye is proportional to the number of metabolically active cells.

[1] = system: cardiomyocytes in rat heart; assay: Cardiomyocyte proliferation following direct injection in-vivo (PCNA staining); settings: direct injection into rat heart, 0.5, 5 and 50 microM, three days, versus saline
Method: Proliferation of cardiomyocytes was evaluated in-vivo following direct injection of EH48 in three concentrations (0.5, 5 and 50 microM) into rat heart. Three days after injections rats were sacrificed and the hearts were fixed with formaldehyde 4%. Slides of 5 micron were stained with the DNA specific marker PCNA. Only cells with morphology of cardiomyocytes (large cells with striation) that expressed the PCNA in the nucleus (brown staining) were considered as proliferate cardiomyocytes (FIG. 6A, arrows). The number of stained cells in each treatment was evaluated compared to control (saline injected) rats (FIG. 6B).

ERKs [2] = assay: Western immunoblot, ERKs phosphorylation in cardiomyocytes; type: cell-based, rat; settings: 0.5-10 μM, 20 min, 37° C., FIG. 1B
Method: (§3) The effect of the compounds of formula I on ERKs and p38-MAPK was checked in cardiomycetes. […] Stimulation of the MAPKs members by compounds of the invention was compared with the stimulation by the growth factor Ang (Angiotensin II, 10 nM, 10 min), which is known as MAPKs stimulator in cardiomyocytes. […] ERKs and p38 were related to the total amount of ERKs proteins in the sample. […] As explained, the ERKs signaling pathway participate in the cell survival and proliferation. Administering the compounds stimulating this pathways after myocardial infarction may accelerate cell survival of the cardiomyoctes; alternatively, said compounds may be administered as a preventing drug before the injury occurs in risk cases.

p38-MAPK [3] = assay: Western immunoblot, p38-MAPK phosphorylation in cardiomyocytes; type: cell-based, rat; settings: 0.5-10 μM, 20 min, 37° C., FIG. 1B
Method: as §3

p38-MAPK [4] = assay: Western immunoblot, p38-MAPK phosphorylation in VSM cells; type: cell-based, rat; settings: 0.5-20 μM, 20 min, 37° C., FIG. 1A
Method: (§4) Stimulation of ERKs and p38-MAPKs with compounds of the invention was characterized in VSM cells and cardiomyocytes. […] As a positive control for ERKs activation, the cells were incubated with 10^−7M EGF for 5 minutes. […] Therefore, this compound and other derivates may be used as selective compounds to inhibit or stimulate one of the members in the MAPKs-signaling pathway.

ERKs [5] = assay: Western immunoblot, ERKs phosphorylation in VSM cells; type: cell-based, rat; settings: 0.5-20 μM, 20 min, 37° C., FIG. 1A
Method: as §4

[6] = system: primary cardiomyocytes derived from neonatal rats; assay: Cell viability (XTT) of cardiomyocytes; type: cell-based, rat; settings: for injury of cardiomyocytes at concentrations killing VSM cells: cardiomyocytes versus VSM cells; for IC50: 24 h incubation with compound, then XTT 4 h, read-out: ID50 Cardiomyocytes
Method: (§5) Three main cell types of the cardiovascular system were evaluated: primary cardiomyocytes derived from neonatal rats primary vascular smooth muscle (VSM) cells derived from rat aorta and human umbilical vein endothelial cells. Furthermore, human colon carcinoma HT29 cells and BL6-8 melanoma cells were evaluated as representative cancer cells. The cells were prepared as described previously in Etzion S. et al.: JMCC 33 (2001) 1321-30; Granot Y. et al.: JBC 268 (1993) 9564-9; the ATCC (the Global Bioresource Center™); and Assa-Kunik et al.: J. Immunol. 171 (2003) 2945-52.
as §1
The viability of the cells was measured as described above. Briefly, cells were incubated with the compounds for 24 h followed by incubation with XTT for 4 h. The assay is based on the ability of metabolic active cells to reduce the tetrazolium salt XTT to orange colored compound of formazan. The intensity of the dye is proportional to the number of metabolically active cells. The concentration at which 50% cells remain viable, ID50, is shown in Table 1 for several compounds of the invention.

[7] = system: HT29 human colon carcinoma cells; assay: Apoptosis of HT29 cells (DNA fragmentation, PI staining); type: cell-based; settings: 48 h incubation
Method: The various cell types were incubated with a compound of formula I (0.3-25 μM) for 24-48 h. Untreated cells were served as control. After trypsinization, cells were centrifuged for 5 min, 1500 g and resuspended in DMEM medium contains 10% FCS. Sample of the cells (25 μl) was added to 2 μl mixture of (5 μg/ml) ethidium bromide and (5 μg/ml) acridine orange in PBS. Sample of the stained cells was examined under fluorescent microscope. Ethidium bromide binds to the DNA of damaged cells and stains it orange, while acridine orange stains the nucleus in green. Apoptotic cells appear as nuclei with orange staining of fragmented DNA.
HT29 cells, either untreated or treated 48 h with a compound of formula I (25 μM), after trypsinization, were collected and centrifuged for 5 min, 800 g. The pellet was resuspended with PBS and centrifuged again. 60 μl of PBS was added to the pellet followed by addition of 360 μl of ice-cold 80% ethanol and incubating overnight at −20° C. The cells were thawed on ice and centrifuged for 5 min 800 g 4° C. […] Analysis was carried out by fluorescence-activated flow cytometer (FACSscan).
Apoptosis was evaluated following incubation of 48 h with compound TW 69 using DNA fragmentation method (ethidium bromide staining) and PI (propidium iodide) staining assay, as described above. […]

[8] = system: human umbilical vein endothelial cells; assay: Cell viability (XTT) of endothelial cells; type: cell-based; settings: 24 h incubation with compound, then XTT 4 h; read-out: ID50 Endothelial cells
Method: as §5, §1
as §2, with “incubated with the compounds” for “starved”, “24” for “16-18”, “with” for “with the compound of formula II (EH48) for 24 h and incubation with”, “for” for “for an other”, “cells. […]” for “cells.”

[9] = system: HT29 human colon carcinoma cells; assay: Viability of HT29 human colon carcinoma cells; type: cell-based; settings: 24 h incubation; read-out: ID50 HT29-colon carcinoma
Method: as §5, §1
HT29 human carcinoma cells were incubated for 24 h with compounds of the invention.

[10] = system: primary vascular smooth muscle (VSM) cells derived from rat aorta; assay: Cell viability (XTT) of VSM cells; type: cell-based; settings: 24 h incubation with compound, then XTT 4 h; read-out: ID50 VSM cells
Method: as §5, §1
as §2, with “incubated with the compounds” for “starved”, “24” for “16-18”, “with” for “with the compound of formula II (EH48) for 24 h and incubation with”, “for” for “for an other”, “cells. […]” for “cells.”

ERKs survival pathway = assay: Western immunoblot, ERKs phosphorylation in BL6-8 melanoma cells; settings: FIG. 3B
Method: (§6) Confluent cell monolayers were growth-arrested in serum-free medium for 24 h prior to treatment with the compounds in this patent. Cells were washed twice with medium, scraped, resuspended in lysis buffer (10% glycerol, 25 mM NaCl, 0.1% Triton X-100, 50 mM NaF, 10 mM Na-pyrophosphate, 2 mM EGTA, 2 mM DTT, 20 mM p-nitro-phenylphosphate, 25 mM Tris-HCl, 2 mM Na2VO4, 10 μM PMSF, 10 μg/ml Leupeptin), and the lysate was centrifuged at 14,000 rpm for 20 min. Samples were separated by SDS-polyacrylamide gel electrophoresis, transferred to nitrocellulose membrane, and blocked for 1 h at room temperature with 5% nonfat milk in TBS-T buffer (20 mM Tris, 500 mM NaCl, and 0.01% Tween 20). The membrane was then incubated overnight at 4° C. with an appropriate dilution of anti-phospho-ERKs or anti-total ERK, anti-phospho-p38 or anti-phospho-JNK, followed by incubation for 1 h with the appropriate horseradish peroxidase-conjugated secondary antibody. The immunoblot signal was visualized through enhanced chemiluminescence.
The cells were starved for 24 h in serum free medium, incubated with the selected compound (5-25 μM) for 20 min to 4 h (dependent on the compound examined), 37° C., harvested, centrifuged and suspended in the lysis buffer. The MAPKs stimulation was estimated using the western immunoblot analysis as described above.

P38 pathway = assay: Western immunoblot, p38 phosphorylation in BL6-8 melanoma cells; type: cell-based; settings: FIG. 3B
STAT3 = assay: Western immunoblot, STAT3 phosphorylation in VSM cells; settings: VSM cells activated with AVP, FIG. 2
Method: as §6

ERKs [11] = settings: HT29 cells, 5-25 μM, 20 min to 4 h, FIG. 3A

SMILES	XTT dye intensity (cell survival and viability) (cardiomyocytes)	survival and proliferation of cardiomyocytes in-vivo (PCNA-stained cells) [1]	stimulation of ERKs signaling pathway (ERKs [2])	stimulation of p38-MAPK signaling pathway (p38-MAPK [3])	stimulation of p38-MAPK signaling (p38-MAPK [4])	stimulation of ERKs signaling (ERKs [5])	injury of cardiomyocytes at concentrations killing VSM cells [6]	acceleration of apoptotic response [7] [%]	IC50 [8] [nM]	IC50 [6] [nM]	IC50 [9] [nM]	IC50 [10] [nM]	stimulation of ERKs survival pathway (ERKs survival pathway)	stimulation of P38 pathway (P38 pathway)	inhibition of STAT3 phosphorylation (STAT3)	stimulation of ERKs signaling pathway (ERKs [11])
COC(=O)[C@@H]1CCCN1C1=C(Cl)C(=O)c2ccccc2C1=O [EH48, 2-chloro-3-(L-prolinemethyl ester)-1,4-naphthoquinone]	increase in cell survival and viability; also recorded: XTT elevation	positive in-vivo effect														
Cc1ccc(NC2=C(Cl)C(=O)c3ccccc3C2=O)cc1 [TW69, 2-chloro-3-(p-methylphenylamino)-1,4-naphthoquinone]			stimulate mainly the ERKs signaling pathway; also recorded: induced the formation of phosphorylated ERKs protein	without significantly influencing the p38-MAPK signaling pathway; also recorded: without inducing the formation of phosphorylated p38 protein	stimulate both ERKs and p38-MAPKs signaling	stimulate both ERKs and p38-MAPKs signaling	did not injure the cardiomyocytes at concentrations killing VSM cells	30								
Cc1ccc(NC2=C(N3CCCC3)C(=O)c3ccccc3C2=O)cc1 [TW85, 2-pyrrolidine-3-(p-methylphenylamino)-1,4-naphthoquinone]			stimulates the ERKs signaling pathway; also recorded: induced the formation of phosphorylated ERKs protein	not the p38-MAPK signaling pathway; also recorded: without inducing the formation of phosphorylated p38 protein					800	> 20000	3500	3600				
O=C1C(Nc2ccc(O)cc2)=C(N2CCCC2)C(=O)c2ccccc21 [TW96, 2-pyrrolidine-3-(p-hydroxy-phenylamino)-1,4-naphthoquinone]					stimulates mostly the P38-MAPK		did not injure the cardiomyocytes at concentrations killing VSM cells		500	400	500	200	without stimulating the ERKs survival pathway	specifically stimulate the P38 pathway	strong inhibitor of STAT3 phosphorylation	without significantly influencing the ERKs signaling pathway
